Two compounds from patent EP3333154A1, “CRYSTALLINE FORM OF A SELECTIVE 5-HT6 RECEPTOR ANTAGONIST” (SANDOZ AG, priority 2016, dated 2018) can be followed below.

The nature of data set [1]: Gravimetric moisture sorption (GMS). It counts as physicochemical. The protocol: Moisture sorption and desorption curves were recorded with an SPSx-1µ moisture sorption analyzer (ProUmid, Ulm). The measurement cycle was started at ambient RH of 45%. RH was then decreased to 5% in 5% steps, followed by a further decrease to 3% and to 0%. […] Finally, RH was increased to 40% in 5% steps.
The time per step was set to a minimum of 2 hours and a maximum of 6 hours. If an equilibrium condition with a constant mass of ± 0.01 % within 1 hour was reached before the maximum time for all examined samples the sequential humidity step was applied before the maximum time of 6 hours. If no equilibrium was achieved the consecutive humidity step was applied after the maximum time of 6 hours. The temperature was 25 ± 0.1 °C.

Data set [2] can be described thus: Accelerated stress test at 40 °C/75% RH (HPLC impurities and PXRD). Particulars: 1 month at 40 °C/ 75% RH, open dish. The format is physicochemical. Here is the method: Idalopirdine hydrochloride form V was subjected to accelerated stress conditions of 40 °C and 75% RH in an open dish for one month.
Data set [3] can be described thus: Time-dependent solubility in 0.1 N aqueous HCl solution. Conditions: for Concentration: 0.1 N HCl, (25 ± 1) °C, hydrochloride. The protocol: The time dependent solubilities of idalopirdine hydrochloride form III and form V in 0.1 N HCl have been determined. Thereby, saturated solutions of both forms have been stirred at controlled temperature of (25 ± 1) °C and known aliquots have been taken after 5, 30 and 60 minutes. After filtering the solids, the idalopiridine concentrations of the remaining mother liquors were determined by HPLC using the same method as provided in Example 3 herein. The absolute solubility values were calculated from a calibration curve generated with solutions of known idalopirdine concentrations. […] Table 4: Time dependent solubility of idalopirdine hydrochloride form III and form V in 0.1 N HCl at (25 ± 1) °C

Data set [4] can be described thus: Differential scanning calorimetry (thermal stability). It counts as physicochemical. Conditions: DSC, heating rate 10 K/min. The protocol:
Differential scanning calorimetry (DSC) was performed on a Mettler Polymer DSC R instrument. The sample (4.36 mg) was heated in a 40 microL aluminium pan with pierced aluminium lid from room temperature to 250 °C at a rate of 10 K/min. Nitrogen (purge rate 50 mL/min) was used as purge gas.

Where [5] appears, read: listed as Idalopirdine hydrochloride form V of the present invention.

Take `Cl.Fc1ccc2c(CCNCc3cccc(OCC(F)(F)C(F)F)c3)c[nH]c2c1` [Form V, N-[2-(6-fluoro-1H-indol-3-yl)ethyl]-3-(2,2,3,3-tetrafluoropropoxy)benzylamine hydrochloride]: the “PXRDs before and after the GMS experiment” value in data set [1] (0 to 95% RH, 25 ± 0.1 °C) was “identical”. In data set [1] (sorption cycle from 0 to 95% RH, 25 °C), the “mass increase in the sorption cycle” value is 0.5 w-%. Also, the “PXRD before and after” value in data set [2] (listed as Idalopirdine hydrochloride form V) is recorded as “No change”; in data set [2] (setting [5]) it was “unchanged”. Besides, the figures for the “Increase of total impurities (HPLC at 225nm)” value in data set [2] (setting [5]) and in data set [2] (hydrochloride) were “+0.7 area%” and “about 0.7 area%”, respectively. The “higher concentration in 0.1 N HCl” value in data set [3] is given as “up to 50%”. The “Concentration, difference to Form III” value in data set [3] (5 min) is recorded as “+40%”; in data set [3] (30 min) it was “+50%”; in data set [3] (60 min) it was “+12.5%”. In addition, the Concentration turned out to be 700 µg/mL in data set [3] (5 min), 900 µg/mL in data set [3] (30 min) and 900 µg/mL in data set [3] (60 min). Further, the “thermally stable up to a temperature” value in data set [4] was “at least 120 °C”.
For `Cl.Fc1ccc2c(CCNCc3cccc(OCC(F)(F)C(F)F)c3)c[nH]c2c1` [Form III, N-[2-(6-fluoro-1H-indol-3-yl)ethyl]-3-(2,2,3,3-tetrafluoropropoxy)benzylamine hydrochloride, reference compound], the Concentration stood at 500 µg/mL in data set [3] (5 min), 600 µg/mL in data set [3] (30 min) and 800 µg/mL in data set [3] (60 min).
